We go through one compound from paper PMC3206814, “Stereo-Selectivity of Human Serum Albumin to Enantiomeric and Isoelectronic Pollutants Dissected by Spectroscopy, Calorimetry and Bioinformatics” (PLoS ONE, 2011).

Assay [1] deals with T1, human serum albumin (HSA) (Homo sapiens, UniProt P02768).
T1 construct: gene ALB; commercial, essentially fatty acid free, full-length mature monomer of 585 residues, dialyzed, used without further purification
In words: isothermal titration calorimetry, two-site sequential model. The assay is classed as binding. To be noted: read-out: Kb(M^-1) (converted). The text has this:
isothermal titration calorimetry, two-site sequential model on human serum albumin (HSA)

Assay [2] has as its target T1, human serum albumin (HSA). In words: UV absorption titration at […] nm, […]/dA vs […]/[S] plot. It is filed as binding.

T1 sequence (P02768 25-609): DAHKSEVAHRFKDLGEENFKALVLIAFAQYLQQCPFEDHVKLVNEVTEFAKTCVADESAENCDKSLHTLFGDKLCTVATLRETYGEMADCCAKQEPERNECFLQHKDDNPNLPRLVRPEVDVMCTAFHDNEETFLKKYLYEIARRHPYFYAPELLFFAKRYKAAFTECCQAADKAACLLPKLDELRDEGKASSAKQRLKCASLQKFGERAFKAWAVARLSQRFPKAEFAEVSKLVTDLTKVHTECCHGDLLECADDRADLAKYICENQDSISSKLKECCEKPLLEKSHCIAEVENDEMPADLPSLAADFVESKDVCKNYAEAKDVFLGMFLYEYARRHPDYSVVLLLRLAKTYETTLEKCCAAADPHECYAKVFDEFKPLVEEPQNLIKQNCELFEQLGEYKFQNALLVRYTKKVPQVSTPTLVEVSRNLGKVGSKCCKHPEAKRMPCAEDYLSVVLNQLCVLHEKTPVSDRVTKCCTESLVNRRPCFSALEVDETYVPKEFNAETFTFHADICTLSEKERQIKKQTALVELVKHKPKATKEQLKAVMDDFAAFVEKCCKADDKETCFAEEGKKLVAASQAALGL

With `Oc1ccc2ccccc2c1` [2N, naphthalen–2–ol], the values for the Kd in assay [1] and in assay [2] were 25.3 µM and 66.9 µM, respectively.
